According to patent US20090181929A1, “ORGANIC COMPOUNDS” (priority 2006, published 2009):

Target: T1, CETP (Homo sapiens, UniProt P11597)
T1 construct: Human plasma (50 μL), assay buffer (35 μL) and test compound; tissue New Drug Development Research Center, Inc; host or cells: human EDTA plasma from healthy men
T1 sequence (P11597 18-493): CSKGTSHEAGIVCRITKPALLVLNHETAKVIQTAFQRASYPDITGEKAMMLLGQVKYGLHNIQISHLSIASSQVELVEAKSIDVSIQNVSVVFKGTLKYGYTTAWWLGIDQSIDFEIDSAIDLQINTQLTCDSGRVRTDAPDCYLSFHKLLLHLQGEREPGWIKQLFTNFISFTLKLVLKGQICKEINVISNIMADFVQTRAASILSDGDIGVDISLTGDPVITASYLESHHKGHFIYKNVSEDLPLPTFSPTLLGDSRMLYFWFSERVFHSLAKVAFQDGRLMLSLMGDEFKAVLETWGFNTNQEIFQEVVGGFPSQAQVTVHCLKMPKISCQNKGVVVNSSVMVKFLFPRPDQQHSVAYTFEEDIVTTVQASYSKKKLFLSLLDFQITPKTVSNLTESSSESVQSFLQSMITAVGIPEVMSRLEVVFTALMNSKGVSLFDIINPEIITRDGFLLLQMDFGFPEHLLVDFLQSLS
Test: in vitro CETP activity in human plasma (BODIPY-CE donor microemulsion, fluorescence)
Type: biochemical
Protocol: For purposes of detecting the in vitro and in vivo CETP activity, human pro-apolipoprotein AI (pro-apoAI) and donor microemulsion are prepared as follows. The cDNA of human pro-apoAI (NCBI accession number: NM_000039) is cloned from human liver Quick-Clone™ cDNA (Clontech, CA) and inserted to a pET28a vector (Novagen, Germany) for bacterial expression. Expressed protein as a fusion protein with 6×His-tag at N-terminus in BL-21 Gold (DE3) (Strategene, CA) is purified using HiTrap Chelating (GE Healthcare, CT). Pro-apoAI containing microemulsion as a donor particle is prepared following previous reports (J. Biol. Chem., 280:14918-22). Glyceryl trioleate (62.5 ng, Sigma, Mo.), 3-sn-phosphatidylcholine (583 ng, Wako Pure Chemical Industries, Japan), and cholesteryl BODIPY® FL C12 (250 ng, Invitrogen, CA) are dissolved in 1 mL of chloroform. The solution is evaporated, then residual solvent is removed in vacuum for more than 1 hr. The dried lipid mixture is dissolved in 500 μL of the assay buffer (50 mM Tris-HCl (pH7.4) containing 150 mM NaCl and 2 mM EDTA) and sonicated at 50° C. with a microtip (MICROSON™ ULTRASONIC CELL DISRUPTOR, Misonix, Farmingdale, N.Y.) at output power 006 for 2 min. After sonication, the solution is cooled to 40° C., added to 100 μg of human pro-apoAI, and sonicated at output power 004 for 5 min at 40° C. The solution, BODIPY-CE microemulsion as a donor molecule is stored at 4° C. after filtration through a 0.45 μm PVDF filter.
For purposes of detecting in vitro CETP activity, human EDTA plasma samples from healthy men are purchased from New Drug Development Research Center, Inc. Donor solution is prepared by a dilution of donor microemulsion with assay buffer. Human plasma (50 μL), assay buffer (35 μL) and test compound dissolved in dimethylsulfoxide (1 μL) are added to each well of 96 well half area black flat bottom plate. The reaction is started by the addition of donor solution (14 μL) into each well. Fluorescence intensities are measured every 30 min at 37° C. with excitation wave length of 485 nm and emission wavelength of 535 nm. The CETP activity (Fl/min) is defined as the changes of fluorescence intensity from 30 to 90 min. The IC50 value is obtained by the logistic equation (Y=Bottom+(Top-Bottom)/(1+(x/IC50)̂Hill slope) using Origin software, version 7.5 SR3.

IC50	SMILES
260 nM	CCN(CC1CCCC1)c1ncc(N2CCC2)cc1CN(Cc1cc(C(F)(F)F)cc(C(F)(F)F)c1)c1nnn(C)n1 [Compound 1, (5-Azetidin-1-yl-3-{[(3,5-bis-trifluoromethyl-benzyl)-(2-methyl-2H-tetrazol-5-yl)-amino]-methyl}-pyridin-2-yl)-cyclopentylmethyl-ethyl-amine]
370 nM	CCN(CC1CCCC1)c1ncc(N(C)C(C)=O)cc1CN(Cc1cc(C(F)(F)F)cc(C(F)(F)F)c1)c1nnn(C)n1 [Compound 2, N-[5-{[(3,5-Bis-trifluoromethyl-benzyl)-(2-methyl-2H-tetrazol-5-yl)-amino]-methyl}-6-(cyclopentylmethyl-ethyl-amino)-pyridin-3-yl]-N-methyl-acetamide]
140 nM	CCN(CC1CCCC1)c1ncc(SC)cc1CN(Cc1cc(C(F)(F)F)cc(C(F)(F)F)c1)c1nnn(C)n1 [Compound 3, (3-{[(3,5-Bis-trifluoromethyl-benzyl)-(2-methyl-2H-tetrazol-5-yl)-amino]-methyl}-5-methylsulfanyl-pyridin-2-yl)-cyclopentylmethyl-ethyl-amine]
110 nM	CCN(CC1CCCC1)c1nc(C)c(Br)cc1CN(Cc1cc(C(F)(F)F)cc(C(F)(F)F)c1)c1nnn(C)n1 [Compound 4, (3-{[(3,5-Bis-trifluoromethyl-benzyl)-(2-methyl-2H-tetrazol-5-yl)-amino]-methyl}-5-bromo-6-methyl-pyridin-2-yl)-cyclopentylmethyl-ethyl-amine]
300 nM	CCN(CC1CCCC1)c1ncc(C)cc1CN(Cc1cc(C(F)(F)F)cc(C(F)(F)F)c1)c1nnn(C)n1 [Compound 5, (3-{[(3,5-Bis-trifluoromethyl-benzyl)-(2-methyl-2H-tetrazol-5-yl)-amino]-methyl}-5-methyl-pyridin-2-yl)-cyclopentylmethyl-ethyl-amine]
230 nM	CCN(CC1CCCC1)c1ncc(I)cc1CN(Cc1cc(C(F)(F)F)cc(C(F)(F)F)c1)c1nnn(C)n1 [Compound 6, (3-{[(3,5-Bis-trifluoromethyl-benzyl)-(2-methyl-2H-tetrazol-5-yl)-amino]-methyl}-5-iodo-pyridin-2-yl)-cyclopentylmethyl-ethyl-amine]
720 nM	CCCCN(C)c1cnc(N(CC)CC2CCCC2)c(CN(Cc2cc(C(F)(F)F)cc(C(F)(F)F)c2)c2nnn(C)n2)c1 [Compound 7, 3-{[(3,5-Bis-trifluoromethyl-benzyl)-(2-methyl-2H-tetrazol-5-yl)-amino]-methyl}-N*5*-butyl-N*2*-cyclopentylmethyl-N*2*-ethyl-N*5*-methyl-pyridine-2,5-diamine]
630 nM	CCN(CC1CCCC1)c1ncc([N+](=O)[O-])cc1CN(Cc1cc(C(F)(F)F)cc(C(F)(F)F)c1)c1nnn(C)n1 [Compound 8, (3-{[(3,5-Bis-trifluoromethyl-benzyl)-(2-methyl-2H-tetrazol-5-yl)-amino]-methyl}-5-nitro-pyridin-2-yl)-cyclopentylmethyl-ethyl-amine]
